# Assay results from patent US10391103B2, “Ferroporphyrin solid dispersion and preparation method thereof” (Sinotherapeutics Inc., priority 2013, dated 2019).
# How the values were obtained:
# [1] = rats; cited from earlier work
# [2] = Stability test for the solid dispersions (content by HPLC)
substance,measurement,setting,value
porphyrin iron [API],absolute oral bioavailability,[1],0.93%
same,"Content, stability study 0 day","[2]; open, 25° C. 60% RH",100.9%
same,"Content, stability study 1 day","[2]; open, 25° C. 60% RH",98.0%
same,"Content, stability study 3 days","[2]; open, 25° C. 60% RH",98.7%
same,"Content, stability study 7 days","[2]; open, 25° C. 60% RH",100.9%
same,"Content, stability study 35 days","[2]; open, 25° C. 60% RH",98.8%
same,"Content, stability study 0 day","[2]; open, 40° C. 75% RH",100.9%
same,"Content, stability study 1 day","[2]; open, 40° C. 75% RH",99.0%
same,"Content, stability study 3 days","[2]; open, 40° C. 75% RH",99.8%
same,"Content, stability study 7 days","[2]; open, 40° C. 75% RH",100.8%
same,"Content, stability study 35 days","[2]; open, 40° C. 75% RH",100.6%
same,"Content, stability study 0 day","[2]; sealed, 25° C. 60% RH",100.9%
same,"Content, stability study 1 day","[2]; sealed, 25° C. 60% RH",99.5%
same,"Content, stability study 3 days","[2]; sealed, 25° C. 60% RH",102.0%
same,"Content, stability study 7 days","[2]; sealed, 25° C. 60% RH",100.5%
same,"Content, stability study 14 days","[2]; sealed, 25° C. 60% RH",98.9%
same,"Content, stability study 35 days","[2]; sealed, 25° C. 60% RH",102.2%
same,"Content, stability study 0 day","[2]; sealed, 40° C. 75% RH",100.9%
same,"Content, stability study 1 day","[2]; sealed, 40° C. 75% RH",99.6%
same,"Content, stability study 3 days","[2]; sealed, 40° C. 75% RH",102.7%
same,"Content, stability study 7 days","[2]; sealed, 40° C. 75% RH",100.8%
same,"Content, stability study 14 days","[2]; sealed, 40° C. 75% RH",99.2%
same,"Content, stability study 35 days","[2]; sealed, 40° C. 75% RH",102.7%
